Measurements as given in patent US20250163056A1, “NONMUSCLE MYOSIN II INHIBITORS” (The University of Florida Research Foundation, Inc., priority 2018, published 2025).
Where two headings read alike, the source gives them in different places.

Key:
Rabbit skeletal myosin = assay: Skeletal muscle myosin II actin-activated ATPase assay; type: biochemical; conditions: 20 nM skeletal muscle myosin II; read-out: SKMMII KI
Summary of the method: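 Inhibitory constants come from a quadratic one-site fit of 16-point, triplicate dose-response data, highest compound concentration 50 uM. Rates are slopes of NADH fluorescence decline over 30 min, coupling ATP turnover of 20 nM rabbit skeletal myosin II with 10 μM actin and 1 mM ATP via PK/LDH, pH 7.0, 25 °C.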

[1] = Photostability, percentage remaining undegraded under illumination or in the dark; conditions: for Photostability 4 hours: percentage remaining undegraded after 4 hours illumination; for Photostability 24 hours: percentage remaining undegraded after 24 hours illumination; for Photostability Dark (24 h): percentage remaining undegraded in the dark
[2] = system: hiPS cardiomyocytes (Cor.4U CMs); assay: Cardiac safety assay 1: beating parameters of cardiomyocytes (xCELLigence RTCA Cardio); type: cell-based, human; conditions: hiPS-derived cardiomyocytes
Protocol: The spontaneous contractions of cardiomyocytes (CMs) is measured label-free in real time using the ACEA xCELLigence RTCA Cardio instrument. All measurements are performed at 37° C. in a cell culture incubator, allowing for spontaneous beating of CMs at physiological conditions. Cor.4U CMs are seeded at 3×10^4 cells/well in 180 μl/well maintenance medium. Prior to seeding, a background impedance measurement (plate plus medium) is performed. The contraction of CMs involves cyclic modulation of cell morphology and adhesion inducing a delta change in impedance. From the cyclic changes in impedance a beating frequency, amplitude and effects on beating pattern can be calculated. Time point “0” (baseline) is recorded 10× for 20 seconds at 1 minute intervals. Thereafter, compounds and control (0.1% DMSO) are added to the wells and effects are measured 30 minutes later. Vehicle control is 0.1% DMSO and positive control is 100 nM isoproterenol. Compounds are tested at 0.1, 0.3, 1.0 and 3.0 uM. Data is collected at 5, 10, 15, 20 and 30 minutes, and 1, 4, 6, 12 and 24 hours post-incubation.

Bovine cardiac myosin = Bovine cardiac myosin (Bos taurus (Bovine), UniProt Q9BE39); assay: Cardiac muscle myosin II actin-activated ATPase assay (NADH-coupled); type: biochemical; set-up: key to Ratio CMMII:NMII Ki/EC50: NMII-sel: no Ki value for cardiac myosin II could be determined; the compounds had no detectable inhibitory properties versus the cardiac myosin II; conditions: for CMMII/NMII Ratio: cardiac Ki relative to NMII EC50; for Ratio CMMII:NMII Ki/EC50: cardiac myosin II Ki over nonmuscle myosin II EC50
Summary of the method: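 Inhibitory constants came from a quadratic one-to-one binding fit of 16-point dose-responses (highest final 50 uM, triplicate). Rates were NADH-calibrated fluorescence slopes over 30 min at 25° C, with 300 nM bovine cardiac myosin, 10 μM actin and 1 mM ATP coupled through PK/LDH in pH 7.0 MOPS buffer.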

rodent behaviors = conditions: systemically administered
[3] = 300 nM cardiac myosin, 10 μM actin, 25° C., read-out: CMMII KI
[4] = cardiac muscle myosin II, read-out: CMMII Ki

Sequence of Bovine cardiac myosin (Q9BE39 whole entry): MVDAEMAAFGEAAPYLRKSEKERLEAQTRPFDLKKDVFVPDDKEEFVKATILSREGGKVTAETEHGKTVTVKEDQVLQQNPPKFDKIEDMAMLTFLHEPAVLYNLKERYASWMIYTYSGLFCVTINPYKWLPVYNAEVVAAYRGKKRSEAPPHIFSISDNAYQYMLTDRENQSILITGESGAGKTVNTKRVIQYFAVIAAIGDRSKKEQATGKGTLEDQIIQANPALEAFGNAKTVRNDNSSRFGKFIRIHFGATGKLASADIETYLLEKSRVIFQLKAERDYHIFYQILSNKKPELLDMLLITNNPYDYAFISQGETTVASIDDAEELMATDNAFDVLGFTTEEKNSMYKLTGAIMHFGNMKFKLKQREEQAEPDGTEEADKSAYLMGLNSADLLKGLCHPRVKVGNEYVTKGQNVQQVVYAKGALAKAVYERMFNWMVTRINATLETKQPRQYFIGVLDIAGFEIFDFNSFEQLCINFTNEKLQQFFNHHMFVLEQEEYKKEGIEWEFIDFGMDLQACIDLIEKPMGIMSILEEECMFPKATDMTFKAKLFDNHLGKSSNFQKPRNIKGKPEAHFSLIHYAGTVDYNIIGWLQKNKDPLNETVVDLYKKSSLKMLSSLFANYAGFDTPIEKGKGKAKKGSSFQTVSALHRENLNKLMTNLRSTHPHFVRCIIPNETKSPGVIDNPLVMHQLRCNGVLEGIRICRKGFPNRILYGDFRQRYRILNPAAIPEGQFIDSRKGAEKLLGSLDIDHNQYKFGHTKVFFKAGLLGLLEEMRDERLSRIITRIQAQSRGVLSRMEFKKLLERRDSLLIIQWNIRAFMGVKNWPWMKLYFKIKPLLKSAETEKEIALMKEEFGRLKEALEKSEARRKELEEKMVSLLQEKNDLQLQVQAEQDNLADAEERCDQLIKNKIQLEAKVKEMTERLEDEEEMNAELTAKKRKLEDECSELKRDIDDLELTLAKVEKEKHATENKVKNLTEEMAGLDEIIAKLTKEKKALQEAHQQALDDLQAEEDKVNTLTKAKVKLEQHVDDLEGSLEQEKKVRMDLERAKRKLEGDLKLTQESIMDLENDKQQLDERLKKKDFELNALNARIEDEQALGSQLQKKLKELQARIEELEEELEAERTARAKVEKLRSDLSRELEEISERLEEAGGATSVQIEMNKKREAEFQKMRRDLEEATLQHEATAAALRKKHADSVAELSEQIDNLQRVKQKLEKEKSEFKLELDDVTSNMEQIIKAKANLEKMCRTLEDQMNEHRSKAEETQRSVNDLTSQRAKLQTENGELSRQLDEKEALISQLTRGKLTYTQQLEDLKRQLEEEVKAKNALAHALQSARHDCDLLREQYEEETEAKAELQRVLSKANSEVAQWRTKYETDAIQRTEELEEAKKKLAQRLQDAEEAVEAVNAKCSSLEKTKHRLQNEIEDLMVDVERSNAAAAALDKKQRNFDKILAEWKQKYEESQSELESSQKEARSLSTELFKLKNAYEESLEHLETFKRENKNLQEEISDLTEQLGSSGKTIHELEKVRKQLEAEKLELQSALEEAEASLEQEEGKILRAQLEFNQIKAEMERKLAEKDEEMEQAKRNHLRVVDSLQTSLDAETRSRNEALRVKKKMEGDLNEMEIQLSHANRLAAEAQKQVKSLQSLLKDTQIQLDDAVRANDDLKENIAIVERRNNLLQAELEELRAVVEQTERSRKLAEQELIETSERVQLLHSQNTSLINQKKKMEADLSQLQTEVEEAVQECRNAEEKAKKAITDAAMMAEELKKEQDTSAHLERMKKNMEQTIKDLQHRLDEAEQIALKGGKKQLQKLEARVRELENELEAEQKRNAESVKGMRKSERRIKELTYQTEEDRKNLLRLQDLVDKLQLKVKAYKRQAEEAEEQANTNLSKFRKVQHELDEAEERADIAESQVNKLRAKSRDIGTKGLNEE
Sequence of Bovine cardiac myosin (P85100 whole entry partner): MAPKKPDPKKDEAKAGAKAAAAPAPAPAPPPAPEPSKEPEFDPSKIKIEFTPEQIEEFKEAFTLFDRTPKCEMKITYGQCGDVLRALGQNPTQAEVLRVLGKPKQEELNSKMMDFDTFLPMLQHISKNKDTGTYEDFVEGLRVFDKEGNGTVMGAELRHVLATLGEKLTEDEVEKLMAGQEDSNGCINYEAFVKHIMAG
Sequence of Bovine cardiac myosin (Q3SZE5 whole entry partner): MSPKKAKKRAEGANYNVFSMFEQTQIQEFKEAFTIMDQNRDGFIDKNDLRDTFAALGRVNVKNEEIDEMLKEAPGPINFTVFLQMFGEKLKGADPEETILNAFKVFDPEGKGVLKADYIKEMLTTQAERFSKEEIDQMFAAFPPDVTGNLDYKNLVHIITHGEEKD

| Compound | Ki (Rabbit skeletal myosin) [µM] | Photostability 4 hours [1] [%] | Photostability 24 hours [1] [%] | Photostability Dark (24 h) [1] [%] | Qualitative impact on contractility (e.g. Full = Complete inhibition of contraction) ([2]; 0.1 uM-1.0 uM) | Change in amplitude at 1 uM @ 15 min [2] | Qualitative impact on contractility (e.g. Full = Complete inhibition of contraction) ([2]; 3.0 uM) | Ki (Bovine cardiac myosin; [3]) [µM] | CMMII/NMII Ratio (Bovine cardiac myosin) | Ki (Bovine cardiac myosin; [4]) [µM] | Ratio CMMII:NMII Ki/EC50 (Bovine cardiac myosin) | Photostability 4 hours (4 h) [%] | Photostability 24 hours (24 h) [%] | Photostability Dark (24 h) [%] | effect in a broad panel of rodent behaviors (rodent behaviors) |
| --- | --- | --- | --- | --- | --- | --- | --- | --- | --- | --- | --- | --- | --- | --- | --- |
| Cc1cccc(N2CC[C@@]3(O)C(=O)c4cc(C)ccc4N=C23)c1 [BPN-0025100] | 9.7 | 82.8 | 4.7 | 99.0 | 0.1 uM-1.0 uM: No effect; 3.0 uM: | −7.8 ± 1.3% | Small effect | 48 | 3.51 | 26.3 | 6.4 | – | – | – | – |
| Cc1ccc2c(c1)C(=O)[C@]1(O)CCN(c3cccc(Cl)c3)C1=N2 [BPN-0025059] | 22 | 96.1 | 48.6 | >99 | 0.1 uM-1.0 uM: No effect; 3.0 uM: | +1.1 ± 0.1% | Small effect | 120 | 9.25 | 47.2 | 23.5 | – | – | – | – |
| Cc1cc(N2CC[C@@]3(O)C(=O)c4c(sc(C)c4C)NC23)ccc1C#N (stereo partly shown) [BPN-0026886] | 4.2 | – | – | – | – | – | – | 19 | – | – | 7.0 | >99 | 98.5 | >99 | – |
| Cc1ccc2c(c1)C(=O)C1(O)CCN(c3ccccc3)C1=N2 (racemic) [racemic Blebb] | – | – | – | – | – | – | – | – | – | – | – | – | – | – | no effect |
| COc1cc(N2CC[C@@]3(O)C(=O)c4cc(F)c(C)cc4N=C23)ccn1 [BPN-0026745] | 2.6 | >99 | 94.2 | >99 | – | – | – | 73 | – | – | 25.2 | – | – | – | – |
| Cc1ccc2c(c1)C(=O)[C@]1(O)CCN(c3cnc4sccc4c3)C1=N2 [BPN-0027410] | 1.6 | 91.5 | 41.8 | >99 | – | – | – | 25 | – | – | 7.4 | – | – | – | – |
| CCc1cc2c(s1)N=C1N(c3ccc(Cl)cc3)CC[C@@]1(O)C2=O [BPN-0026770] | 1.5 | >99 | 92.9 | >99 | – | – | – | – | – | – | NMII-sel | – | – | – | – |
| COc1ccc(N2CC[C@@]3(O)C(=O)c4cc(C(F)(F)F)ccc4N=C23)cc1 [BPN-0026393] | 1.7 | 97.9 | 75.0 | >99 | – | – | – | 11 | – | – | 3.2 | – | – | – | – |
| COc1ccc(N2CC[C@@]3(O)C(=O)c4cc(C)c(C)cc4N=C23)cn1 [BPN-0028648] | 0.26 | 52.5 | <1 | 98.4 | – | – | – | 4.4 | – | – | 3.4 | – | – | – | – |
| Cc1cc2c(cc1C)C(=O)[C@]1(O)CCN(c3ccc4c(c3)OCCC4)C1=N2 [BPN-0028924] | 2.6 | 44.7 | <1 | 97.7 | – | – | – | 20 | – | – | 11.8 | – | – | – | – |
| O=C1c2cc(C(F)(F)F)ccc2N=C2N(c3ccccc3)CC[C@@]12O [BPN-0025110] | 8 | 6.6 | 2.6 | >99 | – | – | – | 22 | – | – | 6.9 | – | – | – | – |
| O=C1c2cc(Cl)c(Cl)cc2N=C2N(c3ccccc3)CC[C@@]12O [BPN-0026643] | 1.9 | 64.0 | <1 | 85.1 | – | – | – | 17 | – | – | 3.5 | – | – | – | – |
| Cc1cc2c(cc1C)C(=O)[C@]1(O)CCN(c3ccc4c(c3)NCCS4)C1=N2 [BPN-0028922] | 0.77 | 86.1 | 27.7 | 94.8 | – | – | – | 9.7 | – | – | 8.8 | – | – | – | – |
| O=C1c2c(sc3ccccc23)N=C2N(c3ccccc3)CC[C@@]12O [BPN-0026785] | 5.9 | 95.8 | 59.3 | 91.6 | – | – | – | 23 | – | – | 3.1 | – | – | – | – |
| Cc1cc2c(cc1C)C(=O)[C@]1(O)CCN(c3ccc(Cl)cc3)C1=N2 [BPN-0026662] | 0.19 | 85.4 | 7.5 | >99 | – | – | – | 6 | – | – | 5.5 | – | – | – | – |
| Cc1cc2c(cc1C)C(=O)[C@]1(O)CCN(c3ccc(I)cc3)C1=N2 [BPN-0027109] | 0.27 | 82.5 | 29.4 | >99 | – | – | – | 11 | – | – | 21.2 | – | – | – | – |
| COc1cc(N2CC[C@@]3(O)C(=O)c4cc(C)c(C)cc4N=C23)ccn1 [BPN-0026709] | 1.3 | 98.7 | 93.0 | 98.2 | – | – | – | 30.6 | – | – | 25.5 | – | – | – | – |
| Cc1cc2c(cc1C)C(=O)[C@]1(O)CCN(c3cnc(C)c(C)c3)C1=N2 [BPN-0028731] | 2.2 | 37.6 | 7.4 | >99 | – | – | – | 40 | – | – | 7.7 | – | – | – | – |
| Cc1sc2c(c1C)C(=O)[C@]1(O)CCN(c3ccc(Cl)cc3)C1=N2 [BPN-0026815] | 0.27 | 91.2 | 88.2 | 90.2 | – | – | – | 2.8 | – | – | 3.6 | – | – | – | – |
